Where two headings read alike, the source gives them in different places.
Assays:
Type in all cases: in vivo
[1] = test system: Chilo suppressalis (Striped Rice Stemborer); test: Example B3: Chilo suppressalis (striped rice stemborer), artificial diet, L2 larvae; details: 144 h, read-out: control in at least one of the three categories (mortality, anti-feedant effect, or growth inhibition)
Procedure: 24-well microtiter plates with artificial diet were treated with aqueous test solutions prepared from 10′000 ppm DMSO stock solutions by pipetting. After drying, the plates were infested with L2 larvae (6-8 per well). The samples were assessed for mortality, anti-feeding effect, and growth inhibition in comparison to untreated samples 6 days after infestation. Control of Chilo suppressalis by a test sample is given when at least one of the categories mortality, anti-feedant effect, and growth inhibition is higher than the untreated sample.

[2] = test system: Plutella xylostella (Diamond Back Moth); test: Example B4: Plutella xylostella (diamond back moth), artificial diet, eggs, 24-well; details: 192 h, read-out: control in at least one of the two categories (mortality or growth inhibition)
Procedure: 24-well microtiter plates with artificial diet were treated with aqueous test solutions prepared from 10′000 ppm DMSO stock solutions by pipetting. After drying, Plutella eggs were pipetted through a plastic stencil onto a gel blotting paper and the plate was closed with it. The samples were assessed for mortality and growth inhibition in comparison to untreated samples 8 days after infestation.

[3] = test system: Diabrotica Balteata (Corn Root Worm); test: Example B1: Diabrotica balteata (corn root worm), maize sprouts sprayed, L2 larvae; details: 96 h, read-out: control in at least one of the two categories (mortality or growth inhibition)
Procedure: Maize sprouts placed onto an agar layer in 24-well microtiter plates were treated with aqueous test solutions prepared from 10′000 ppm DMSO stock solutions by spraying. After drying, the plates were infested with L2 larvae (6 to 10 per well). The samples were assessed for mortality and growth inhibition in comparison to untreated samples 4 days after infestation.

[4] = application rate of 200 ppm, 6 days after infestation, L2 larvae
[5] = application rate of 200 ppm, 8 days after infestation, eggs
[6] = application rate of 200 ppm, 4 days after infestation, L2 larvae

CC(Nc1nc(Cl)nc2c(Br)cc(C(F)(F)F)cc12)c1ncnn1-c1ncccn1 (stereo not shown) [P.51, 8-bromo-2-chloro-N-[1-(2-pyrimidin-2-yl-1,2,4-triazol-3-yl)ethyl]-6-(trifluoromethyl)quinazolin-4-amine]
percent control (mortality, anti-feedant effect or growth inhibition) at 200 ppm [1, 4]: ≥ 80%

C[C@@H](c1ncnn1-c1ncccn1)N(C)c1c(Cl)cnc2c(C(F)(F)F)cc(C(F)(F)F)cc12 [P.181, 3-chloro-N-methyl-N-[(1S)-1-(2-pyrimidin-2-yl-1,2,4-triazol-3-yl)ethyl]-6,8-bis(trifluoromethyl)quinolin-4-amine]
percent control (mortality or growth inhibition) at 200 ppm [2, 5]: ≥ 80%
percent control (mortality or growth inhibition) at 200 ppm [3, 6]: ≥ 80%

CC(c1nccnc1-c1ncccn1)N(CC1CC1)c1ncnc2c(C(F)(F)F)cc(Br)cc12 (stereo not shown) [P.80, 6-bromo-N-(cyclopropylmethyl)-N-[1-(3-pyrimidin-2-ylpyrazin-2-yl)ethyl]-8-(trifluoromethyl)quinazolin-4-amine]
percent control (mortality or growth inhibition) at 200 ppm [2, 5]: ≥ 80%
percent control (mortality or growth inhibition) at 200 ppm [3, 6]: ≥ 80%
percent control (mortality, anti-feedant effect or growth inhibition) at 200 ppm [1, 4]: ≥ 80%

C[C@@H](c1ncnn1-c1ccc(C#N)cn1)N(C(=O)Oc1ccccc1)c1ncnc2c(C(F)(F)F)cc(C(F)(F)F)cc12 [P.226, phenyl N-[6,8-bis(trifluoromethyl)quina-zolin-4-yl]-N-[(1S)-1-[2-(5-cyano-2-pyridyl)-1,2,4-triazol-3-yl]ethyl]carbamate]
percent control (mortality or growth inhibition) at 200 ppm [2]: ≥ 80%
percent control (mortality or growth inhibition) at 200 ppm [3]: ≥ 80%
percent control (mortality, anti-feedant effect or growth inhibition) at 200 ppm [1]: ≥ 80%

CC(Nc1ccnc2c(C(F)(F)F)cc(C(F)(F)F)cc12)c1nccnc1-c1ncccn1 (stereo not shown) [P.85, N-[1-(3-pyrimidin-2-ylpyrazin-2-yl)ethyl]-6,8-bis(trifluoromethyl)quino-lin-4-amine]
percent control (mortality or growth inhibition) at 200 ppm [2, 5]: ≥ 80%
percent control (mortality or growth inhibition) at 200 ppm [3, 6]: ≥ 80%
percent control (mortality, anti-feedant effect or growth inhibition) at 200 ppm [1, 4]: ≥ 80%

CC(Nc1nc(Cl)nc2c(Cl)cc(C(F)(F)F)cc12)c1ncnn1-c1ncccn1 (stereo not shown) [P.48, 2,8-dichloro-N-[1-(2-pyrimidin-2-yl-1,2,4-triazol-3-yl)ethyl]-6-(trifluoromethyl)quinazolin-4-amine]
percent control (mortality, anti-feedant effect or growth inhibition) at 200 ppm [1, 4]: ≥ 80%

COC(=O)N(c1ncnc2c(C(F)(F)F)cc(C(F)(F)F)cc12)C(C)c1ncnn1-c1ccc(C#N)cn1 (stereo not shown) [P.167, methyl N-[6,8-bis(trifluoromethyl)quina-zolin-4-yl]-N-[1-[2-(5-cyano-2-pyridyl)-1,2,4-triazol-3-yl]ethyl]carbamate]
percent control (mortality or growth inhibition) at 200 ppm [2]: ≥ 80%
percent control (mortality, anti-feedant effect or growth inhibition) at 200 ppm [1]: ≥ 80%

CC(Nc1ncnc2c(C(F)(F)F)cc(C(F)(F)F)cc12)c1ncnn1-c1ccc(F)cn1 (stereo not shown) [P.233, N-[1-[2-(5-fluoro-2-pyridyl)-1,2,4-triazol-3-yl]ethyl]-6,8-bis(trifluoromethyl)quina-zolin-4-amine]
percent control (mortality or growth inhibition) at 200 ppm [2, 5]: ≥ 80%

CC(c1nccnc1-n1nccn1)N(CC1CC1)c1ncnc2c(Cl)cc(C(F)(F)F)cc12 (stereo not shown) [P.76, 8-chloro-N-(cyclopropylmethyl)-N-[1-[3-(triazol-2-yl)pyrazin-2-yl]ethyl]-6-(trifluoromethyl)quinazolin-4-amine]
percent control (mortality or growth inhibition) at 200 ppm [2, 5]: ≥ 80%
percent control (mortality or growth inhibition) at 200 ppm [3, 6]: ≥ 80%
percent control (mortality, anti-feedant effect or growth inhibition) at 200 ppm [1, 4]: ≥ 80%

C[C@@H](c1ncnn1-c1ccc(C#N)cn1)N(C)c1ncnc2c(C(F)(F)F)cc(C(=O)C3CC3)cc12 [P.170, 6-[5-[(1S)-1-[[6-(cyclopropanecarbonyl)-8-(trifluoromethyl)quinazolin-4-yl]-methyl-amino]ethyl]-1,2,4-triazol-1-yl]pyridine-3-carbonitrile]
percent control (mortality or growth inhibition) at 200 ppm [2, 5]: ≥ 80%
percent control (mortality, anti-feedant effect or growth inhibition) at 200 ppm [1, 4]: ≥ 80%

CC(Nc1ncnc2c(C(F)(F)F)cc(Br)cc12)c1nccnc1-c1ccc(Br)cn1 (stereo not shown) [P.198, 6-bromo-N-[1-[3-(5-bromo-2-pyridyl)pyrazin-2-yl]ethyl]-8-(trifluoromethyl)quinazolin-4-amine]
percent control (mortality or growth inhibition) at 200 ppm [2, 5]: ≥ 80%
percent control (mortality, anti-feedant effect or growth inhibition) at 200 ppm [1, 4]: ≥ 80%

CC(Nc1nccc2c(C(F)(F)F)cc(C(F)(F)F)cc12)c1ncnn1-c1ccc(C#N)cn1 (stereo not shown) [P.210, 6-[5-[1-[[5,7-bis(trifluoromethyl)-1-isoquinolyl]amino]ethyl]-1,2,4-triazol-1-yl]pyridine-3-carbonitrile]
percent control (mortality or growth inhibition) at 200 ppm [2, 5]: ≥ 80%
percent control (mortality or growth inhibition) at 200 ppm [3, 6]: ≥ 80%

CC(Nc1ncnc2c(C(F)(F)F)cc(C(F)(F)F)cc12)c1ncnn1-c1ccc(OC(F)F)cn1 (stereo not shown) [P.193, N-[1-[2-[5-(difluoromethoxy)-2-pyridyl]-1,2,4-triazol-3-yl]ethyl]-6,8-bis(trifluoromethyl)quina-zolin-4-amine]
percent control (mortality or growth inhibition) at 200 ppm [2, 5]: ≥ 80%
percent control (mortality or growth inhibition) at 200 ppm [3, 6]: ≥ 80%
percent control (mortality, anti-feedant effect or growth inhibition) at 200 ppm [1, 4]: ≥ 80%

CC(Nc1ncnc2c(Cl)cc(C(F)(F)F)cc12)c1ncnn1-c1ccc(Br)cn1 (stereo not shown) [P.267, N-[1-[2-(5-bromo-2-pyridyl)-1,2,4-triazol-3-yl]ethyl]-8-chloro-6-(trifluoromethyl)quinazolin-4-amine]
percent control (mortality, anti-feedant effect or growth inhibition) at 200 ppm [1, 4]: ≥ 80%

CC(c1nccnc1-n1nccn1)N(C)c1ncnc2c(OC(F)F)cc(Br)cc12 (stereo not shown) [P.180, 6-bromo-8-(difluoromethoxy)-N-methyl-N-[1-[3-(triazol-2-yl)pyrazin-2-yl]ethyl]quinazolin-4-amine]
percent control (mortality or growth inhibition) at 200 ppm [2, 5]: ≥ 80%
percent control (mortality or growth inhibition) at 200 ppm [3, 6]: ≥ 80%
percent control (mortality, anti-feedant effect or growth inhibition) at 200 ppm [1, 4]: ≥ 80%

CC(c1nccnc1-c1ccc(C#N)cn1)N(CC1CC1)c1ncnc2c(Br)cc(C(F)(F)F)cc12 (stereo not shown) [P.73, 6-[3-[1-[[8-bromo-6-(trifluoromethyl)quinazolin-4-yl]-(cyclopropylmethyl)amino]ethyl]pyrazin-2-yl]pyridine-3-carbonitrile]
percent control (mortality or growth inhibition) at 200 ppm [2, 5]: ≥ 80%
percent control (mortality or growth inhibition) at 200 ppm [3, 6]: ≥ 80%
percent control (mortality, anti-feedant effect or growth inhibition) at 200 ppm [1, 4]: ≥ 80%

COc1ccc(CN(c2ncnc3c(C(F)(F)F)cc(C(F)(F)F)cc23)C(C)c2nccnc2-c2ncccn2)cc1 (stereo not shown) [P.225, N-[(4-methoxyphenyl)methyl]-N-[1-(3-pyrimidin-2-ylpyrazin-2-yl)ethyl]-6,8-bis(trifluoromethyl)quina-zolin-4-amine]
percent control (mortality or growth inhibition) at 200 ppm [2, 5]: ≥ 80%
percent control (mortality or growth inhibition) at 200 ppm [3, 6]: ≥ 80%
percent control (mortality, anti-feedant effect or growth inhibition) at 200 ppm [1, 4]: ≥ 80%

CC(Nc1ncnc2c(C(F)(F)F)cc(C(F)(F)F)cc12)c1ncnn1-c1ncc(Br)cn1 (stereo not shown) [P.92, N-[1-[2-(5-bromopyrimidin-2-yl)-1,2,4-triazol-3-yl]ethyl]-6,8-bis(trifluoromethyl)quina-zolin-4-amine]
percent control (mortality or growth inhibition) at 200 ppm [2, 5]: ≥ 80%
percent control (mortality or growth inhibition) at 200 ppm [3, 6]: ≥ 80%
percent control (mortality, anti-feedant effect or growth inhibition) at 200 ppm [1, 4]: ≥ 80%

CC(c1nccnc1-c1ccc(C#N)cn1)N(CC1CC1)c1ncnc2c(Cl)cc(C(F)(F)F)cc12 (stereo not shown) [P.72, 6-[3-[1-[[8-chloro-6-(trifluoromethyl)quinazolin-4-yl]-(cyclopropylmethyl)amino]ethyl]pyrazin-2-yl]pyridine-3-carbonitrile]
percent control (mortality or growth inhibition) at 200 ppm [2, 5]: ≥ 80%
percent control (mortality or growth inhibition) at 200 ppm [3, 6]: ≥ 80%
percent control (mortality, anti-feedant effect or growth inhibition) at 200 ppm [1, 4]: ≥ 80%

CC(Nc1ncnc2c(Br)cc(C(F)(F)F)cc12)c1ncnn1-c1ccc(F)cn1 (stereo not shown) [P.186, 8-bromo-N-[1-[2-(5-fluoro-2-pyridyl)-1,2,4-triazol-3-yl]ethyl]-6-(trifluoromethyl)quinazolin-4-amine]
percent control (mortality or growth inhibition) at 200 ppm [2, 5]: ≥ 80%
percent control (mortality or growth inhibition) at 200 ppm [3, 6]: ≥ 80%
percent control (mortality, anti-feedant effect or growth inhibition) at 200 ppm [1, 4]: ≥ 80%

CC(c1nccnc1-c1ccc(Br)cn1)N(C)c1ncnc2c(C(F)(F)F)cc(Br)cc12 (stereo not shown) [P.196, 6-bromo-N-[1-[3-(5-bromo-2-pyridyl)pyrazin-2-yl]ethyl]-N-methyl-8-(trifluoromethyl)quinazolin-4-amine]
percent control (mortality or growth inhibition) at 200 ppm [3, 6]: ≥ 80%

CC(Nc1ncnc2c(C(F)(F)F)cc(C(F)(F)F)cc12)c1ncnn1-c1ccc(Br)cn1 (stereo not shown) [P.268, N-[1-[2-(5-bromo-2-pyridyl)-1,2,4-triazol-3-yl]ethyl]-6,8-bis(trifluoromethyl)quina-zolin-4-amine]
percent control (mortality or growth inhibition) at 200 ppm [2, 5]: ≥ 80%
percent control (mortality or growth inhibition) at 200 ppm [3, 6]: ≥ 80%

CC(Nc1ncnc2c(Br)cc(Cl)cc12)c1ncnn1-c1ccc(C#N)cn1 (stereo not shown) [P.158, 6-[5-[1-[(8-bromo-6-chloro-quinazolin-4-yl)amino]ethyl]-1,2,4-triazol-1-yl]pyridine-3-carbonitrile]
percent control (mortality or growth inhibition) at 200 ppm [2, 5]: ≥ 80%
percent control (mortality, anti-feedant effect or growth inhibition) at 200 ppm [1, 4]: ≥ 80%
